The values that follow come from patent publication US20250312378A1, “COMPOSITION COMPRISING ANTI-FOLIC ACID AGENT FOR DIFFERENTIATION OF MESENCHYMAL STEM CELL INTO CARTILAGE” (EWHA UNIVERSITY-INDUSTRY COLLABORATION FOUNDATION, priority 2021, published 2025).

In series [1] the test system is COL II. In words: COL II mRNA expression by qPCR in TMSCs in PEG-PA 3D matrix. The series is classed as cell-based, Human. Particulars: 0.1 μM; for COL II mRNA level compared to control system, day 14: day 14, vs control system containing no antifolate; for COL II expression level compared to control system (day not given): vs control system, time point not given. From the text: (§1) Based on the screening results obtained in Example 3, dapsone (1), pralatrexate (4), and trimethoprim (7) were selected as antifolate candidates.
(§2) Human TMSCs used as stem cells were donated from Ewha Womans University Mokdong Hospital (Seoul, Korea). The cells were isolated from a donor after tonsillectomy in compliance with the ethical guidelines of the University. DMEM (Corning, USA) containing 10.0% (v/v) fetal bovine serum (FBS, Corning, USA), 1.0% (v/v) penicillin/streptomycin (PS, Corning, USA) and 1.0% (v/v) […] (AA, Corning, USA) was used as a growth medium, and the isolated human TMSCs were cultured using the growth medium in traditional polystyrene culture dishes at 37° C. under 5% CO2 atmosphere. Then, the stem cells (passage 7, 0.5×10^6 cells/well) were mixed with the aqueous PEG-PA solution (10.0 wt % in growth medium) containing an antifolate or KGN at 20° C. A system containing no antifolate or KGN was used as a control. The TMSC-suspended solution was injected into a 24-well culture plate (0.2 ml/well) at 37° C. to form a hydrogel matrix. The medium was replaced every 3 days during a 3D culture period of 21 days, and each experiment was performed in triplicate.
(§3) Chondrogenic differentiation of TMSCs was investigated at the mRNA and protein levels of chondrogenic biomarkers such as COL II, SOX 9, and ACAN. Gene expression levels were determined compared to that of a control system containing no antifolate using equal amounts of cDNA. COL I, an osteogenic biomarker, was also used to determine whether osteogenic differentiation occurred when an antifolate was used.
(§4) Specifically, after 0, 14, and 21 days of 3D culture, mRNA was extracted from the cells in the thermogel by using a TRIZOL™ reagent (Invitrogen, USA) according to the manufacturer's protocol, and the mRNA concentration was assayed by a Nano Drop 2000 spectrometer (Thermo Scientific, USA). Equal amounts of cDNA were used in qPCR to determine gene expression levels compared to that of the control system containing no antifolate. Then, total cDNA was synthesized using a ReverTra Ace® qPCR RT kit (Toyobo, Japan), and mRNA expression levels were measured using a CFX96™ real-time RT-PCR system (Bio-Rad, USA) and an iQ™ SYBR® Green Supermix solution (Bio-Rad, USA). The relative expression levels of target genes were calculated as 2^−ΔΔCt by the following calculation equation: ΔΔCt=(gene A−GAPDH)t−(gene A−GAPDH)0. Here, the subscript 0 refers to data on day 0 (3 hours). The primer sequences used for amplification are shown in Table 1 below, and each test value was determined as the mean value of triplicate determinations.

In series [2] the test system is COL II. In words: Screening of COL II mRNA expression under 3D culture conditions (FIG. 4B). It is filed as cell-based, Human. To be noted: 0.1 μM. The procedure:
Various antifolates were screened to evaluate their effects on cell proliferation and viability and their chondrogenic potential. The antifolates used were dapsone (1), methotrexate (2), pemetrexed (3), pralatrexate (4), proguanil (5), pyrimethamine (6), and trimethoprim (7). Stem cells loaded in a PEG-PA thermogel scaffold containing each antifolate or KGN were cultured in a DMEM growth medium containing FBS (10.0% v/v) for 21 days. A control experiment was performed under the same conditions, except that no antifolate was added.
Expression of chondrogenic biomarkers was investigated in the presence of antifolates. The expression of COL II, the most widely used biomarker for chondrogenic differentiation of stem cells, was investigated at the mRNA level (FIG. 4B).

Series [3] concerns ACAN. The experiment in a line: ACAN mRNA expression by qPCR in TMSCs in PEG-PA 3D matrix. The series is classed as cell-based, Human. Particulars: 0.1 μM; for ACAN expression level on day 14 compared to control system: day 14, vs control system containing no antifolate; for ACAN mRNA level on day 14 compared to day 0: day 14 vs day 0 (3 hours after start of culture).
From the text: as §1, §2, §3
as §4, with “[…],” for “after 0, 14, and 21 days of 3D culture,”
(In general: In qPCR the cycle at which signal appears reflects the starting amount.)

The nature of series [4]: In vitro drug release from PEG-PA thermogel into PBS (HPLC). It is filed as physicochemical. To be noted: from PEG-PA thermogel (10.0 wt %) into PBS, 37° C. The procedure:
The drug release profile of the thermogel was determined in vitro. […] The temperature of the polymer solution containing the drug was increased to 37° C. to cause a sol-gel transition. After 30 minutes, phosphate-buffered saline (PBS) (1.2 mL, 37° C.) was added thereto, and the mixture was placed in a shaking thermostatic bath with 40 strokes/min at 37° C. PBS was replaced at specific sampling intervals. The drug released into the medium, PBS, was analyzed by a high-performance liquid chromatography system (HPLC; Waters 1525B, USA) equipped with a photodiode detector (Waters 2998, USA) and a Jupiter@5 μm C18 300A LC column (Phenomenex, USA). As a mobile phase, a mixed solvent of methanol/water (40/60 v/v) containing trifluoroacetic acid (0.1%) was used for dapsone, pralatrexate and trimethoprim, and a mixed solvent of acetonitrile/water (35/65 v/v) containing formic acid (0.1%) was used for KGN. The flow rate was set at 1.0 ml/min. The amount of drug released was analyzed at 260 nm for dapsone, 307 nm for pralatrexate, 287 nm for trimethoprim, and 274 nm for KGN, and was determined as the mean value of triplicate determinations.

The subject of series [5] is SOX 9. In words: SOX 9 mRNA expression by qPCR in TMSCs in PEG-PA 3D matrix. It is filed as cell-based, Human. To be noted: 0.1 μM.
From the text: as §1, §2, §3
as §4, with “[…],” for “after 0, 14, and 21 days of 3D culture,”

In another series the test system is RUNX1. In words: RUNX1 immunofluorescence in TMSCs. Particulars: serum-free growth medium after overnight starvation. The series is classed as cell-based, Human. The procedure:
For immunofluorescence assay, stem cells were starved overnight and then treated with each antifolate or KGN in serum-free growth medium. Each cell was treated with bovine serum albumin (1.0% w/v in PBS), and then treated with anti-CBFβ primary antibody (Abcam, USA) and anti-RUNX1 primary antibody (Santa Cruz Biotechnology, USA) and incubated. The cells were treated with anti-rabbit IgG H&L secondary antibodies (Abcam, USA) and anti-mouse IgG H&L secondary antibodies (Abcam, USA) against CBFβ and RUNX1, respectively. The cell nuclei were stained with DAPI (Molecular probes, USA), and each image was obtained using an Olympus IX71 fluorescence microscope and Olympus DP2-BSW software.

Series [6] concerns SOX 9. The experiment in a line: SOX 9 protein expression by immunofluorescence assay. The series is classed as cell-based, Human. Particulars: 0.1 μM, 14 days 3D culture. The procedure:
(§5) Protein expression for COL II, SOX 9, ACAN and COL I was investigated using immunofluorescence assay for stem cells cultured for 14 days. Specifically, TMSCs, which were 3D cultured with antifolates or KGN for 14 days and then encapsulated in thermogel scaffolds, were fixed with 4.0% paraformaldehyde (PFA) for 12 hours and quickly frozen at −70° C. Then, the thermogels were cryosectioned to a thickness of 10 μm using CM1850 (Leica, Germany). All the samples were treated with Triton (0.25% v/v in PBS), and then blocked with bovine serum albumin (1.0% w/v in PBS), and treated with anti-COL II, anti-SOX 9, anti-ACAN, and anti-COL I primary antibodies. Next, the samples were washed with PBS and treated with the following secondary antibodies: goat anti-mouse IgG H&L Alexa Fluor®594 for COL II and ACAN, and goat anti-rabbit IgG H&L Alexa Fluor®594 for SOX 9 and COL I. All the antibodies were purchased from Abcam (USA) and tested according to the manufacturer's protocol. In addition, each sample was stained for nuclei and F-actin with DAPI (Molecular probes, USA) and phalloidin (PHD) (Abcam, USA), respectively. Images were obtained using an Olympus IX71 fluorescence microscope and Olympus DP2-BSW software.
(§6) For immunofluorescence assay, the cell nucleus and actin were stained blue and green with DAPI and PHD, respectively, and the antibodies for each protein were stained red.

Series [7] concerns ACAN. In words: ACAN protein expression by immunofluorescence assay. It is filed as cell-based, Human. To be noted: 0.1 μM, 14 days 3D culture. On the procedure: as §5, §6
In series [8] the test system is COL II. The experiment in a line: COL II protein expression by immunofluorescence assay. It is filed as cell-based, Human. To be noted: 0.1 μM, 14 days 3D culture. The procedure:
as §5, §6

In another series the test system is CBFβ. The experiment in a line: Nuclear translocation of CBFβ in TMSCs by Western blot. It is filed as cell-based, Human. To be noted: serum-free growth medium after overnight starvation. The text has this:
Filamin A is an actin-binding protein that regulates the cytoskeletal network involved in chondrogenic differentiation. When KGN binds to filamin A in the cytosol, the interaction between filamin A and CBFβ is broken, and when the dissociated CBFβ enters the nucleus, CBFβ regulates RUNX1, thereby promoting differentiation of MSCs into chondrocytes. Whether the antifolate can be involved in this mechanism and regulate chondrogenic differentiation-related factors was examined by Western blot analysis and immunofluorescence assay.
Specifically, for Western blot analysis, stem cells (TMSCs) were starved overnight and then treated with each antifolate or KGN in serum-free growth medium. Then, cytosolic and nuclear proteins of the TMSCs were obtained using a nuclear/cytosolic fractionation kit (Cell Biolabs Inc., USA) and total protein was obtained using a cell extraction buffer (Invitrogen, USA) containing a protease inhibitor and phenyl methane sulfonyl fluoride (1.0 mM). Each of the cytosolic and nuclear proteins was loaded, detected with anti-CBFβ primary antibody (Cell Signaling Technology, USA), and then treated with anti-rabbit IgG HRP-conjugated secondary antibody (Cell Signaling Technology, USA) and incubated. Then, the proteins were visualized with an enhanced chemiluminescence substrate (Bio-rad, USA) using an Amersham Imager 600 (GE, UK).

With `O=C(O)c1ccccc1C(=O)Nc1ccc(-c2ccccc2)cc1` [KGN, kartogenin], in the series on COL II [1], the “COL II mRNA level compared to control system, day 14” value is 1.7 fold and the “COL II expression level compared to control system (day not given)” value is listed as 2.1 fold. Further, the “mRNA expression level of COL II compared to control” value in the series with COL II [2] is 1.5 fold. Besides, in the series with ACAN [3], the “ACAN expression level on day 14 compared to control system” value is recorded as 1.7 fold and the “ACAN mRNA level on day 14 compared to day 0” value is given as 5 fold. In the series on ACAN [3] (day 20), the “ACAN mRNA level relative to control system, day 20” value is reported as “approximately 3.7 times”.
With `COc1cc(Cc2cnc(N)nc2N)cc(OC)c1OC` [trimethoprim], in series [4], the “drug released over 24 hours” value amounted to 79%. Further, in the series with COL II [1], the “COL II mRNA level compared to control system, day 14” value came to 2.1 fold and the “COL II expression level compared to control system (day not given)” value turned out to be 2.1 fold. Also, the “mRNA expression level of COL II compared to control” value in the series with COL II [2] is on record as 1.5 fold. In the series on SOX 9 [5], the “SOX 9 expression change” value is “significantly (p<0.01) increased” and the “SOX 9 mRNA expression level compared to control system, day 14” value is 2.9 fold. In addition, in the series on ACAN [3], the “ACAN expression level on day 14 compared to control system” value came to 2.2 fold and the “ACAN mRNA level on day 14 compared to day 0” value is 6 fold.
For the compound `C#CCC(Cc1cnc2nc(N)nc(N)c2n1)c1ccc(C(=O)N[C@@H](CCC(=O)O)C(=O)O)cc1` (stereo partly shown) [pralatrexate], the “drug released over 24 hours” value in series [4] was found to be 79%. Besides, the “fluorescence intensity of RUNX1 in the nucleus compared to control” value in the series on RUNX1 is recorded as “increased”. The “fluorescence intensity of SOX 9 protein” value in the series with SOX 9 [6] was “highest”. Besides, in the series on COL II [1], the “COL II expression, rank among systems” value is “highest”; the “COL II mRNA level compared to control system, day 14” value is on record as 3.9 fold; the “COL II expression level compared to control system (day not given)” value was 3.5 fold. In the series with COL II [1] (day 14), the “COL II expression relative to KGN” value came out at 2 fold. In the series with COL II [1] (day 14 vs day 0 (3 hours after start of culture)), the “COL II expression on day 14 compared to day 0” value is given as 10 fold. For the same compound, the “mRNA expression level of COL II compared to control” value in the series on COL II [2] was 2.1 fold. Besides, in the series on SOX 9 [5], the “SOX 9 expression change” value was “significantly (p<0.01) increased”; the “SOX 9 mRNA level, rank among systems” value is “highest”; the “SOX 9 mRNA expression level compared to control system, day 14” value was found to be 4.2 fold. The “fluorescence intensity of ACAN protein” value in the series with ACAN [7] is “highest”. For the same compound, in the series with ACAN [3], the “ACAN expression level on day 14 compared to control system” value was 4.3 fold and the “ACAN mRNA level on day 14 compared to day 0” value was 12 fold. The “fluorescence intensity of COL II protein” value in the series on COL II [8] is “highest”. In the series with CBFβ, the “nuclear translocation of CBFβ (nuclear versus cytosolic band intensity, FIG. 8B)” value is listed as “increased”.
For the compound `Nc1ccc(S(=O)(=O)c2ccc(N)cc2)cc1` [dapsone], the “drug released over 24 hours” value in series [4] turned out to be 70%. Further, the “COL II expression level compared to control system (day not given)” value in the series with COL II [1] stood at 2.6 fold. In addition, the “mRNA expression level of COL II compared to control” value in the series with COL II [2] was 1.8 fold.
